In one data set the test system is guinea-pig ileum. In words: Spasmolytic activity in vitro against nicotine, isolated guinea-pig ileum. The following applies: for Spasmolytic activity compared with hexamethonium dibromide: nicotine 1 mg/l, relative EC50 comparison; for spasmolytic index/hexamethonium dibromide: relative index I from activity and relative toxicity, calculated in mmoles. On the procedure: (§1) The spasmolytic activity of the products was studied in vitro with regard to two distinct agonists, namely:
(§2) The organ fragments were kept alive in a tank containing a solution of Tyrode (37° C., pH 7.2, oxygenated by the mixture O2 /CO2, 95%/5%).
(§3) The isotonic contractions were recorded graphically on a physiograph by means of a transducer. […] The values obtained are compared with those of spasmolytic agents selected as reference and are determined under the same experimental conditions, namely:
hexamethonium dibromide for the convulsant effect of nicotine (table V).

A further data set concerns cornea of the rabbit. In words: Local anaesthetic activity on contact, rabbit cornea (derived from Regnier). The data set is classed as in vivo, rabbit (male albino). The following applies: for Local anaesthetic activity: effect compared with lidocaine: 1% solution, relative to lidocaine hydrochloride at identical concentration, rabbit cornea; for local anaesthesia/lidocaine hydrochloride index: relative index I from activity and relative toxicity, calculated in mmoles. The protocol:
The local anaesthetic activity on contact is determined on the cornea of the rabbit according to a method derived from the technique of Regnier (Regnier J. R. Salle P. Bull. Soc. Pharmacol. 1926 33, 91).
Male albino rabbits weighing 2 to 3 kg are used in groups of 5. The product solution to be tested is injected in a volume of 0.2 ml into the conjunctival sac. The cornea is then stimulated by means of a hair 3, 6, 10, 15, 20, 25, 45 and 60 minutes after injection.
The local anaesthetic activity is thus expressed in relation to this reference product.

The next data set in a line: in vivo. The following applies: mouse. On the procedure: The acute toxicity of the products of the invention was determined on groups of 20 Swiss OF1 mice weighing 22 to 24 grams by intravenous route.
A further data set relates to rat duodenum. In words: Spasmolytic activity in vitro against barium chloride, isolated rat duodenum. The conditions noted are these: for Spasmolytic activity compared with papaverine hydrochloride / spasmolytic index/papaverine hydrochloride: rat duodenum; for Spasmolytic activity compared with papaverine hydrochloride: BaCl2 50 mg/l, relative EC50 comparison; for spasmolytic index/papaverine hydrochloride: relative index I from activity and relative toxicity, calculated in mmoles; for relative index of spasmolytic activity compared with papaverine: summary statement, times higher than the reference. The protocol: as §1, §2, §3
papaverine hydrochloride for the convulsant effect of barium chloride;

In data set [1] the test system is inflammation in the paw of the rat. In words: Analgesic activity, brewer's yeast paw inflammation pressure test (derived from Randall and Selito). The format is in vivo, rat (male Sprague-Dawley). The following applies: 100 mg/kg oral, 1 hour after administration. On the procedure: The analgesic activity of the products was studied on male Sprague-Dawley rats in groups of 15 by a method derived from that of Randall and Selito (Arch. Int. Pharmacodyn. 1957 (III) page 409). This method consists in causing a painful inflammation in the paw of the rat by injecting 0.1 ml of a 20% brewer's yeast solution, then applying a pressure to the inflammation and determining the value of the pressure at which a painful reaction of the animal appears.
The activity of the products was studied after 1 hour of administration by oral route at the rate of one dose of 100 mg/kg in comparison with untreated animals. In this test aspirin was chosen as reference substance.
The analgesic effect of the products is expressed by the percentage increase of the pressure endured by the treated animals in relation to that endured by the untreated animals.
The results of the analgesic activity of the product tested are expressed in relation to the activity of aspirin administered by oral route at a dose of 100 mg/kg.

Setting [2] is: reference substances, mice, intravenous.

The source of these data is patent US4301163A, “Amino-ether oxides and use thereof in therapy” (priority 1979, dated 1981).

As usually defined, the LD50 is the dose expected to kill half of the subjects tested. A lower LD50 goes with a more toxic substance. In the case of `CCC(COCc1ccc(OC)c(OC)c1)(c1ccccc1)N(C)C` (stereo not drawn) [Example 1, 1-[(3,4-dimethoxy)benzyloxymethyl]-1-phenyl-N,N-dimethyl-n-propylamine], in the data set with guinea-pig ileum, the “Spasmolytic activity compared with hexamethonium dibromide” value came out at 0.9 and the spasmolytic index/hexamethonium dibromide is given as 1.29. Besides, in the data set with cornea of the rabbit, the “Local anaesthetic activity: effect compared with lidocaine” value stood at 1.6 and the “local anaesthesia/lidocaine hydrochloride index” value is recorded as 1.52. Moreover, the LD50 at 192 h in “in vivo” (iv) was determined as 30 mg/kg. Also, in the data set on rat duodenum, the “Spasmolytic activity compared with papaverine hydrochloride” value is 2.7 and the spasmolytic index/papaverine hydrochloride is recorded as 2.45. The “Analgesic activity in relation to aspirin” value (shortened to “Analgesic activity”) in data set [1] was determined as 1.
With `CCC(COCc1cc(OC)c(OC)c(OC)c1)(c1ccccc1)N(C)C` (stereo not drawn) [Example 2, 1-[(3,4,5-trimethoxy)benzyloxymethyl]-1-phenyl-N,N-dimethyl-n-propylamine], in the data set with guinea-pig ileum, the “Spasmolytic activity compared with hexamethonium dibromide” value was 1.2 and the spasmolytic index/hexamethonium dibromide is on record as 2.42. Further, in the data set with cornea of the rabbit, the “Local anaesthetic activity: effect compared with lidocaine” value amounted to 2.2 and the “local anaesthesia/lidocaine hydrochloride index” value is given as 2.95. In the data set “in vivo” (iv), this compound displayed an LD50 at 192 h of 42 mg/kg. For the same compound, in the data set on rat duodenum, the “Spasmolytic activity compared with papaverine hydrochloride” value was found to be 5.4, the spasmolytic index/papaverine hydrochloride is listed as 6.90 and the “relative index of spasmolytic activity compared with papaverine” value was “up to seven”.
For `CCC(COCc1ccccc1)(c1ccccc1)N(C)C` (stereo not drawn) [Example 3, 1-Benzyloxymethyl-1-phenyl-N,N-dimethyl-n-propylamine], in the data set with guinea-pig ileum, the “Spasmolytic activity compared with hexamethonium dibromide” value is on record as 3.4 and the spasmolytic index/hexamethonium dibromide is 6.69. Besides, in the data set on cornea of the rabbit, the “Local anaesthetic activity: effect compared with lidocaine” value is on record as 1.4 and the “local anaesthesia/lidocaine hydrochloride index” value was 1.85. In “in vivo” (iv), this compound had an LD50 at 192 h of 41.4 mg/kg. Further, in the data set on rat duodenum, the “Spasmolytic activity compared with papaverine hydrochloride” value amounted to 0.9 and the spasmolytic index/papaverine hydrochloride was 1.125.
As for `CCCCOCC(CC)(c1ccccc1)N(C)C` (stereo not drawn) [Example 4], the LD50 at 192 h in “in vivo” (iv) was found to be 26.8 mg/kg.
Regarding `CCCCCCCCCCOCC(CC)(c1ccccc1)N(C)C` (stereo not drawn) [Example 5], in the data set on guinea-pig ileum, the “Spasmolytic activity compared with hexamethonium dibromide” value is 2.2 and the spasmolytic index/hexamethonium dibromide is reported as 3.85. Also, in the data set “in vivo” (iv), the LD50 at 192 h was 37 mg/kg. Besides, in the data set on rat duodenum, the “Spasmolytic activity compared with papaverine hydrochloride” value came to 0.5 and the spasmolytic index/papaverine hydrochloride is on record as 0.56. For the same compound, the “Analgesic activity” value in data set [1] was found to be 2.5.
Compound `CCC(COCc1ccc(C)cc1)(c1ccccc1)N(C)C` (stereo not drawn) [Example 6] displayed an LD50 at 192 h in “in vivo” (iv) of 48.6 mg/kg.
For `CCC(COc1ccccn1)(c1ccccc1)N(C)C` (stereo not drawn) [Example 7], in the data set on guinea-pig ileum, the “Spasmolytic activity compared with hexamethonium dibromide” value is given as 1.0 and the spasmolytic index/hexamethonium dibromide was 1.75. In the data set with cornea of the rabbit, the “Local anaesthetic activity: effect compared with lidocaine” value was determined as 1.1 and the “local anaesthesia/lidocaine hydrochloride index” value is listed as 1.30. In the data set “in vivo” (iv), this compound showed an LD50 at 192 h of 37 mg/kg. In addition, in the data set on rat duodenum, the “Spasmolytic activity compared with papaverine hydrochloride” value is 1.7 and the spasmolytic index/papaverine hydrochloride is given as 1.89.
As for `CCC(COCc1ccccn1)(c1ccccc1)N(C)C` (stereo not drawn) [Example 9], in the data set with guinea-pig ileum, the “Spasmolytic activity compared with hexamethonium dibromide” value turned out to be 1.4 and the spasmolytic index/hexamethonium dibromide is recorded as 2.62. Besides, in the data set on cornea of the rabbit, the “Local anaesthetic activity: effect compared with lidocaine” value is 0.7 and the “local anaesthesia/lidocaine hydrochloride index” value is listed as 0.875. The compound also came in with an LD50 at 192 h in “in vivo” (iv) of 39 mg/kg. Besides, in the data set with rat duodenum, the “Spasmolytic activity compared with papaverine hydrochloride” value is 0.4 and the spasmolytic index/papaverine hydrochloride is 0.475.
In the case of `CCC(COCc1cccnc1)(c1ccccc1)N(C)C` (stereo not drawn) [Example 10], in the data set on guinea-pig ileum, the “Spasmolytic activity compared with hexamethonium dibromide” value was 1.7 and the spasmolytic index/hexamethonium dibromide is 3.50. Also, the 50% lethal dose (LD50) at 192 h in the data set “in vivo” (iv) came to 43 mg/kg. In addition, in the data set on rat duodenum, the “Spasmolytic activity compared with papaverine hydrochloride” value was found to be 0.4 and the spasmolytic index/papaverine hydrochloride is on record as 0.525. Moreover, the “Analgesic activity” value in data set [1] came to 1.8.
In the case of `CCC(CN(C)C)(OCc1cc(OC)c(OC)c(OC)c1)c1ccccc1` (stereo not drawn) [Example 11, 2-[(3,4,5-trimethoxy)benzyloxy]-2-phenyl-N,N-dimethyl-n-butylamine], in the data set on guinea-pig ileum, the “Spasmolytic activity compared with hexamethonium dibromide” value came out at 2.6 and the spasmolytic index/hexamethonium dibromide is listed as 5.76. Further, in the data set on cornea of the rabbit, the “Local anaesthetic activity: effect compared with lidocaine” value came to 1.0 and the “local anaesthesia/lidocaine hydrochloride index” value was 1.49. In addition, the LD50 at 192 h in “in vivo” (iv) came to 46.7 mg/kg. Moreover, in the data set on rat duodenum, the “Spasmolytic activity compared with papaverine hydrochloride” value is listed as 1.9 and the spasmolytic index/papaverine hydrochloride is 2.69. Further, in data set [1], the “Analgesic activity” value was determined as 2.3.
For the compound `CCC(COCc1cc(OC)c(OC)c(OC)c1)(NC)c1ccccc1` (stereo not drawn) [Example 12, 1-[(3,4,5-trimethoxy)benzyloxymethyl]-1-phenyl-N-methyl-n-propylamine], in the data set with guinea-pig ileum, the “Spasmolytic activity compared with hexamethonium dibromide” value worked out at 2.3 and the spasmolytic index/hexamethonium dibromide was 4.09. Moreover, in the data set on cornea of the rabbit, the “Local anaesthetic activity: effect compared with lidocaine” value was found to be 1.7 and the “local anaesthesia/lidocaine hydrochloride index” value is 1.84. Besides, the LD50 at 192 h in “in vivo” (iv) turned out to be 34 mg/kg. Moreover, in the data set with rat duodenum, the “Spasmolytic activity compared with papaverine hydrochloride” value is 1.2 and the spasmolytic index/papaverine hydrochloride is on record as 1.24.
Take `COc1ccc(C(C)(COCc2ccc(Cl)cc2)N(C)C)cc1` (stereo not drawn) [Example 13]: in the data set with cornea of the rabbit, the “Local anaesthetic activity: effect compared with lidocaine” value is given as 1.1 and the “local anaesthesia/lidocaine hydrochloride index” value is on record as 1.71. The compound also came in with an LD50 at 192 h in “in vivo” (iv) of 48.4 mg/kg.
For the compound `Cc1ccc(COCC(C)(c2ccc(Cl)c(Cl)c2)N(C)C)cc1` (stereo not drawn) [Example 15], the LD50 at 192 h in the data set “in vivo” (iv) is 160 mg/kg.
Same read-out and setting: the result for `COc1ccc(CC(C)(N)COCc2ccccc2)cc1OC` (stereo not drawn) [Example 17, 1-Benzyloxymethyl-1-methyl-(3,4-dimethoxy)-phenethyl-amine] reads 51.6 mg/kg; that for `COc1ccc(CC(C)(COCc2ccccc2)N(C)C)cc1OC` (stereo not drawn) [Example 18], 27.3 mg/kg.
With `COc1ccc(CCC(C)(COCc2cc(OC)c(OC)c(OC)c2)N(C)C)cc1OC` (stereo not drawn) [Example 19], in the data set on cornea of the rabbit, the “Local anaesthetic activity: effect compared with lidocaine” value was found to be 0.95 and the “local anaesthesia/lidocaine hydrochloride index” value is recorded as 0.92. In the data set “in vivo” (iv), this compound showed an LD50 at 192 h of 30.7 mg/kg.
For the compound `CCC(COc1ccc(OC)cc1)(c1ccccc1)N(C)C` (stereo not drawn) [Example 21, 1-[(4-methoxy)phenoxymethyl]-1-phenyl-N,N-dimethyl-n-propylamine], in the data set with guinea-pig ileum, the “Spasmolytic activity compared with hexamethonium dibromide” value was 1.7 and the spasmolytic index/hexamethonium dibromide was 11.33. In the data set with cornea of the rabbit, the “Local anaesthetic activity: effect compared with lidocaine” value turned out to be 0.45 and the “local anaesthesia/lidocaine hydrochloride index” value is 2.00. The LD50 at 192 h in “in vivo” (iv) is 140 mg/kg. For the same compound, in the data set on rat duodenum, the “Spasmolytic activity compared with papaverine hydrochloride” value stood at 1.7, the spasmolytic index/papaverine hydrochloride is 7.28 and the “relative index of spasmolytic activity compared with papaverine” value is reported as “up to seven”.
Regarding `CCC(CN(C)C)(Oc1ccc(OC)cc1)c1ccccc1` (stereo not drawn) [Example 22, 2-[(4-methoxy)phenoxy]-2-phenyl-N,N-dimethyl-n-butylamine], in the data set “in vivo” (iv), the LD50 at 192 h amounted to 59.6 mg/kg.
For `CC(=O)Oc1ccccc1C(=O)O` [aspirin, reference compound], in data set [1], the “Analgesic activity” value is 1.
With `C[N+](C)(C)CCCCCC[N+](C)(C)C` [hexamethonium, reference compound], in “in vivo” (setting [2]), the LD50 at 192 h was 21 mg/kg.
Take `COc1ccc(Cc2nccc3cc(OC)c(OC)cc23)cc1OC` [papaverine, reference compound]: the 50% lethal dose (LD50) at 192 h in the data set “in vivo” (setting [2]) is 33.1 mg/kg.
